US9481662B2, “Seriniquinones, melanoma-specific anticancer agents” (The Regents of the University of California, priority 2012, dated 2016)

Columns and labels:
HCT-116 cells [1] = assay: Confocal microscopy subcellular localization; assay type: cell-based, human; conditions: confocal imaging with counterstains
Description: Confocal studies were conducted on a LSM 710 inverted confocal microscope (Zeiss) with scanning module with 3 detection channels, Plan-Apochromat 63×/1.4 na objective, diode laser (405 nm, CW pulsed, 30 mW), Ar-laser (458 nm, 488 nm, 514 nm, 25 mW), HeNe-laser (543 nm, 1 mW) and HeNe-laser (633 nm, 5 mW). For all procedures, cells were seeded 24 h prior to treatment, to allow for adequate attachment to the well or flask bottom. Cells were plated in glass-bottom dishes (MatTek Corporation) for microscopic analyses at 1×10^5 cells/mL. Compounds were added to cells under 1 mL of media from […] such that the DMSO content remained under 0.1%. […]
Colocalization studies were conducted by treating cells (HCT-116 or MALME-3M) at a density of 1×10^5 cells/cm^2 in a 35 mm glass-bottom dish (MatTek Corporation). […] After 30 min, cells were washed PBS (4×1 mL) and immediately analyzed by confocal microscope. […] The localization of seriniquinone (1) was acquired by red fluorescence with emission at 550-631 nm, while the ER-tracker was acquired by blue florescence with emission at 406-450 nm. […] After 15 min, cells were washed PBS (4×1 mL) and immediately analyzed by confocal microscope. […] The localization of seriniquinone (1) was acquired by red fluorescence with emission at 550-631 nm, while the ER-tracker was acquired by blue florescence with emission at 415-530 nm.

dermcidin (DCD) = target: T1, dermcidin (DCD) (Homo sapiens, UniProt P81605); assay: Immunoprecipitation with IAF probe and LC-MS/MS target identification; assay type: binding; conditions: HCT-116 cell lysates, iodoacetamide treatment
T1 construct: endogenous in cells; host or cells: HCT-116 cell lysate
T1 sequence (P81605 20-110): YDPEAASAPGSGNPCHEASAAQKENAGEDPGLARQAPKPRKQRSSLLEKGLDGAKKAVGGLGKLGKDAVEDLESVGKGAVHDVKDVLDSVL
Description: Using established protocols,^13 HCT-116 cell lysates were treated for 8 h with probe 13 and immunoprecipitated with resins bearing a covalently-attached anti-IAF mAb.^14 Over multiple repetitions, a series of proteins ranging from 30-250 kDa were obtained in a manner dependent on the concentration probe 13 (FIG. 5A). […] Trypsin digestion coupled with LC-MS/MS analyses was then applied to identify the proteins in the more abundant bands. […] In addition to peptides from GADPH, peptides were also found in the 50 kDa band (b1, FIG. 5A) that corresponded to the 30 aa PIF core, 13 aa propeptide, and 47 aa DCD-1 peptide region of dermcidin (DCD) (FIG. 5B).
Interested if this was the case in this experimentation, the immunoprecipitated fractions were treated with 5 mM iodoacetamide prior to gel analysis. As indicated (Lane L1, FIG. 5C), a low molecular weight band corresponding to DCD appeared.
An 1 mg/mL stock of probe 14a/14b in DMSO solution was added to 1 mL of cell lysate containing ˜1 mg/mL in net protein to provide a net concentration of 3 μM 14a/14b or 30 μM 14a/14b. […]
Silver Stained bands were excised from the polyacrylamide gel and destained. […] General procedure was using in-gel trypsin digest and then the trypsin-digested peptides were analyzed by liquid chromatography LC-MS/MS with electrospray ionization. […]

HCT-116 cells [2] = assay: Cytotoxicity analysis (MTT/MTS) in HCT-116 colon carcinoma cells; assay type: cell-based, human; conditions: Homo sapiens; HCT-116 cells; read-out: IC50
Description: Fortunately, 1 was fluorescent with excitation maxima at 250 nm (ε=20,800 cm^−1M^−1), 289 nm (ε=24,000 cm^−1M^−1) and 342 nm (ε=6900 cm^−1M^−1) and a broad emission from 490-680 nm. Using confocal microscopy, red and green fluorescence from 1 appeared in HCT-116 cells within minutes of addition (FIG. 3A). […] Time course confocal imaging studies were then combined with conventional activity MTT assays^6 to provide a detailed correlation between cellular localization and cytostatic activity.
HCT-116 colon carcinoma cells were plated in 96-well plates at 2.5×10^4 cells/well. After 24 h, the cultures were treated with a single concentration seriniquinone (1) within the range of 0.02-20.0 μM, etoposide (positive control) in the range of 0.05-50 μM or 1% DMSO (negative control). The cells were incubated for either 24 h, 48 h or 72 h. At the end of the incubation period, cultures were added with 3-(4,5-dimethylthiazol-2-yl)-5-(3-carboxymethoxyphenyl)-2-(4-sulfophenyl)-2H-tetrazolium (MTS) for 3 h. Cell viability was quantified by the ability of living cells to reduce the yellow MTS dye to a purple formazan product. Time course experiments were also conducted in HCT-116 cells. Cells were exposed to 1 over short periods (1 h, 3 h, 6 h, and 9 h) followed by incubation in drug-free media to complete a total of 24 h incubation before addition of MTS.

DCD-1L = assay: Covalent labeling of DCD-1L peptide (fluorescent band on SDS-PAGE); assay type: binding, human; conditions: 50 μM, PBS pH 7.2, 5% DMSO, 23° C., 24 h (FIG. 5E)
Description: FIGS. 5A-5E: Seriniquinone (1) targets dermcidin (DCD). […] Sequence listing (FIG. 5B): […] (SEQ ID NO:3); […] (SEQ ID NO:4).
The reactivity between 1 and DCD was then examined. […] These studies now provided initial support for the formation of a unique trimeric covalent adduct, compound 15, between 1, DCD and targeted proteins such as GADPH.

- protein target identified by immunoprecipitation (dermcidin (DCD)): DCD was indeed a primary target
SMILES: CN(C)c1ccc2c(CC(=O)NCCCCCCNC(=O)CCc3ccc4c(=O)c5c(sc6c(=O)c7ccccc7c(=O)c65)c(=O)c4c3)cc(=O)oc2c1 [Probe 13, N-(6-(2-(7-(dimethylamino)-2-oxo-2H-chromen-4-yl)acetamido)hexyl)-3-(5,7,12,13-tetraoxo-5,7,12,13-tetrahydrodinaphtho[2,3-b:2′,3′-d]thiophen-3-yl)propanamide]
- subcellular localization (HCT-116 cells [1]): rapid uptake in the ER followed by transport into autophagosomes
- IC50 (HCT-116 cells [2]): 250 ± 80 nM
- fluorescent labeling of DCD-1L fragment (DCD-1L): fluorescent bands corresponding to DCD-1L
